Each compound was assayed against SARS2 protease (Severe acute respiratory syndrome coronavirus 2, UniProt P0DTD1) (assay: SARS-CoV-2 protease inhibition assay (SARS2 FRET protease assay)). Settings: SARS-CoV-2 protease 25 nM, FRET, peptide substrate 1.3 μM, 30 minutes at 30° C., compounds 20 μM to 1.0 nM; read-out: IC50.
Format: biochemical
In the case of `CC(C)C[C@H](NC(=O)OC(Cc1cccc(Cl)c1)c1ccccc1)C(=O)N[C@@H](C[C@@H]1CCNC1=O)C(O)S(=O)(=O)O` (stereo partly drawn) [Compound C114, Sodium (2S)-2-((2S)-2-(((2-(3-chlorophenyl)-1-phenylethoxy)carbonyl)amino)-4-methylpentanamido)-1-hydroxy-3-((S)-2-oxopyrrolidin-3-yl) propane-1-sulfonate], the IC50 is reported as 11.1 nM. `O=C(N[C@@H](CC1CCCCC1)C(=O)N[C@@H](C[C@@H]1CCNC1=O)C(O)S(=O)(=O)O)OC(Cc1cccc(Cl)c1)c1ccccc1` (stereo partly drawn) [Compound C115, Sodium (2S)-2-((2S)-2-(((2-(3-chlorophenyl)-1-phenylethoxy)carbonyl)amino)-3-cyclohexylpropanamido)-1-hydroxy-3-((S)-2-oxopyrrolidin-3-yl)propane-1-sulfonate] gave an IC50 of 15.7 nM. `NC(=O)C(=O)[C@H](C[C@@H]1CCNC1=O)NC(=O)[C@H](CC1CCCCC1)NC(=O)OC(Cc1cccc(Cl)c1)c1ccccc1` (stereo partly drawn) [Compound C116, 2-(3-Chlorophenyl)-1-phenylethyl ((S)-1-(((S)-4-amino-3,4-dioxo-1-((S)-2-oxopyrrolidin-3-yl)butan-2-yl)amino)-3-cyclohexyl-1-oxopropan-2-yl)carbamate] showed an IC50 of 4840 nM. With `COc1cccc2[nH]c(C(=O)N[C@@H](CC3CCCCC3)C(=O)NC(CC3CC4(CCN(C(C)=O)CC4)NC3=O)C(=O)C(N)=O)cc12` (stereo partly drawn) [Compound C117, N-((2S)-1-((1-(8-Acetyl-2-oxo-1,8-diazaspiro[4.5]decan-3-yl)-4-amino-3,4-dioxobutan-2-yl)amino)-3-cyclohexyl-1-oxopropan-2-yl)-4-methoxy-1H-indole-2-carboxamide] the IC50 was 55.3 nM. Compound `CC(C)C(C)(C)C(NC(=O)OCc1ccccc1)C(=O)N[C@H](C=O)C[C@@H]1CCNC1=O` (stereo partly drawn) [Compound C118, Benzyl (3,3,4-trimethyl-1-oxo-1-(((S)-1-oxo-3-((S)-2-oxopyrrolidin-3-yl)propan-2-yl)amino)pentan-2-yl)carbamate] has an IC50 of 868 nM. For `NC(=O)C(=O)C(CC1CC2(CCCCC2)NC1=O)NC(=O)[C@H](CC1CCCCC1)NC(=O)c1cc2ccccc2[nH]1` (stereo partly drawn) [Compound C119, N-((2S)-1-((4-amino-3,4-dioxo-1-(2-oxo-1-azaspiro[4.5]decan-3-yl)butan-2-yl)amino)-3-cyclohexyl-1-oxopropan-2-yl)-1H-indole-2-carboxamide], the IC50 was 796 nM. `CC(C)(c1cccc(Cl)c1)C(OC(=O)N[C@@H](CC1CCCCC1)C(=O)N[C@@H](C[C@@H]1CCNC1=O)C(=O)C(N)=O)c1cccc(F)c1` (stereo partly drawn) [Compound C120, 2-(3-Chlorophenyl)-1-(3-fluorophenyl)-2-methylpropyl ((S)-1-(((S)-4-amino-3,4-dioxo-1-((S)-2-oxopyrrolidin-3-yl)butan-2-yl)amino)-3-cyclohexyl-1-oxopropan-2-yl) carbamate] gave an IC50 of 1060 nM. For `CC(=O)N1CCC2(CC1)C[C@@H](C[C@H](NC(=O)[C@H](CC1CCCCC1)NC(=O)c1cc3ccccc3[nH]1)C(=O)C(N)=O)C(=O)N2` [Compound C121, N—((S)-1-(((S)-1-((R)-8-acetyl-2-oxo-1,8-diazaspiro[4.5]decan-3-yl)-4-amino-3,4-dioxobutan-2-yl)amino)-3-cyclohexyl-1-oxopropan-2-yl)-1H-indole-2-carboxamide], the IC50 was 178 nM. `CC(C)(c1cccc(Cl)c1)C(OC(=O)N[C@@H](CC1CCCCC1)C(=O)N[C@@H](C[C@@H]1CCNC1=O)C(=O)C(N)=O)c1ccc2ccccc2c1` (stereo partly drawn) [Compound C122, 2-(3-Chlorophenyl)-2-methyl-1-(naphthalen-2-yl)propyl ((S)-1-(((S)-4-amino-3,4-dioxo-1-((S)-2-oxopyrrolidin-3-yl)butan-2-yl)amino)-3-cyclohexyl-1-oxopropan-2-yl)carbamate] gave an IC50 of 456 nM. With `CC1(C)CC(CC(NC(=O)[C@H](CC2CCCCC2)NC(=O)c2cc3ccccc3[nH]2)C(=O)C(N)=O)C(=O)N1` (stereo partly drawn) [Compound C123, N-((2S)-1-((4-amino-1-(5,5-dimethyl-2-oxopyrrolidin-3-yl)-3,4-dioxobutan-2-yl)amino)-3-cyclohexyl-1-oxopropan-2-yl)-1H-indole-2-carboxamide] the IC50 was 294 nM. `Cc1cccc(C(OC(=O)N[C@@H](CC2CCCCC2)C(=O)N[C@@H](C[C@@H]2CCNC2=O)C(=O)C(N)=O)C(C)(C)c2cccc(Cl)c2)c1` (stereo partly drawn) [Compound C124, 2-(3-chlorophenyl)-2-methyl-1-(m-tolyl)propyl ((S)-1-(((S)-4-amino-3,4-dioxo-1-((S)-2-oxopyrrolidin-3-yl)butan-2-yl)amino)-3-cyclohexyl-1-oxopropan-2-yl) carbamate] showed an IC50 of 324 nM. For `CC(=O)N1CCC2(CC1)C[C@H](C[C@H](NC(=O)[C@H](CC1CCCCC1)NC(=O)c1cc3ccccc3[nH]1)C(=O)C(N)=O)C(=O)N2` [Compound C125, N—((S)-1-(((S)-1-((S)-8-acetyl-2-oxo-1,8-diazaspiro[4.5]decan-3-yl)-4-amino-3,4-dioxobutan-2-yl)amino)-3-cyclohexyl-1-oxopropan-2-yl)-1H-indole-2-carboxamide], the IC50 was 20.1 nM. With `CC(=O)N1CCC2(CC1)CC(CC(NC(=O)[C@H](CC1CCCCC1)NC(=O)c1cc3cc(Cl)ccc3[nH]1)C(=O)C(N)=O)C(=O)N2` (stereo partly drawn) [Compound C126, N-((2S)-1-((1-(8-acetyl-2-oxo-1,8-diazaspiro[4.5]decan-3-yl)-4-amino-3,4-dioxobutan-2-yl)amino)-3-cyclohexyl-1-oxopropan-2-yl)-5-chloro-1H-indole-2-carboxamide] the IC50 was 1190 nM. `CC(C)(c1cccc(Cl)c1)C(OC(=O)N[C@@H](CC1CCCCC1)C(=O)N[C@H](C=O)C[C@@H]1CCNC1=O)c1ccc2ccccc2c1` (stereo partly drawn) [Compound C127] gave an IC50 of 3.6 nM. In the case of `CC(C)CN1C(=O)N[C@@H](C[C@@H]2CCNC2=O)C(O)N1C(=O)OCc1ccccc1` (stereo partly drawn) [Compound C129, Benzyl (5S)-6-hydroxy-2-isobutyl-3-oxo-5-(((S)-2-oxopyrrolidin-3-yl)methyl)-1,2,4-triazinane-1-carboxylate], the IC50 is reported as > 20000 nM. `CC(C)(c1cccc(Cl)c1)C(OC(=O)N[C@@H](CC1CCCCC1)C(=O)N[C@@H](C[C@@H]1CCNC1=O)C(=O)C(N)=O)c1ccc2c(c1)CCC2` (stereo partly drawn) [Compound C131, 2-(3-Chlorophenyl)-1-(2,3-dihydro-1H-inden-5-yl)-2-methylpropyl ((S)-1-(((S)-4-amino-3,4-dioxo-1-((S)-2-oxopyrrolidin-3-yl)butan-2-yl)amino)-3-cyclohexyl-1-oxopropan-2-yl)carbamate] was tested, and the IC50 was 15800 nM. `CC(C)(c1cccc(Cl)c1)C(OC(=O)N[C@@H](CC1CCCCC1)C(=O)N[C@H](C=O)C[C@@H]1CCNC1=O)c1ccc2c(c1)CCC2` (stereo partly drawn) [Compound C132, 2-(3-Chlorophenyl)-1-(2,3-dihydro-1H-inden-5-yl)-2-methylpropyl ((S)-3-cyclohexyl-1-oxo-1-(((S)-1-oxo-3-((S)-2-oxopyrrolidin-3-yl)propan-2-yl)amino)propan-2-yl)carbamate] was tested, and the IC50 was 60 nM. `COc1cccc2[nH]c(C(=O)N[C@@H](CC3CCCCC3)C(=O)NC(C=O)CC3CC4(CCN(C(C)=O)CC4)NC3=O)cc12` (stereo partly drawn) [Compound C133, N-((2S)-1-((1-(8-acetyl-2-oxo-1,8-diazaspiro[4.5]decan-3-yl)-3-oxopropan-2-yl)amino)-3-cyclohexyl-1-oxopropan-2-yl)-4-methoxy-1H-indole-2-carboxamide] gave an IC50 of 0.0855 nM.

Reference: patent publication US20230159453A1 (COCRYSTAL PHARMA, INC., priority 2020, published 2023)
